Assay results published in patent US10933049B2, “Mobilizing agents and uses therefor” (The University of Queensland, priority 2015, dated 2021).
Entries after “also recorded” stand apart in the source; their conditions may differ.

Legend:
B16 melanoma cells [1] = assay: B16 tumor cell proliferation; assay type: cell-based, murine
[2] = tested on: ERK and AKT signaling pathways; assay: Western analysis of ERK and AKT phosphorylation in B16 cells; assay type: cell-based, murine; conditions: cultured B16 cells, 0-60 min
Experimental: B16 cells were treated with recombinant human C3a (10 nM) or the selective mouse C3aR agonist WWGKKYRASKLGLAR [SEQ ID NO: 5] (Proctor et al., 2009; Wu et al., 2013) for the times indicated in the experiment. After treatment, crude protein extracts were obtained by disrupting the cells in RIPA lysis buffer. Samples were subjected to SDS-PAGE (Laemmli, 1970), then separated proteins electrotransferred (Towbin et al., 1979) to a PVDF membrane. Membranes were incubated with antibodies to anti-phospho-AKT, anti-total AKT (Cell Signaling, Danvers, Mass.), mouse anti-diphosphorylated ERK1/2 and rabbit anti-total ERK1/2 (Sigma-Aldrich) followed by fluorescently-labelled secondary antibodies (IR Dye 800CW-goat anti-mouse Ig and IR Dye 680LT anti-rabbit Ig; Li-Cor Biosciences). Immunoreactive bands were visualized by scanning on an Odyssey Imaging System (Li-Cor Biosciences) and the percentage phosphorylated protein relative to total protein determined using Odyssey V3.0 image analysis software.

B16 melanoma cells [3] = assay: Cell migration assay (scratch) of B16 cells; assay type: cell-based, murine; conditions: 10^-6 mol/L, 24 hours
Experimental: Cells were seeded at confluence (2×10^5 cells/cm^2) into a 24 well plate, adhered overnight and then confluent monolayers scratched with a pipette tip before being treated for 24 hours with C3aR agonist (10^−6 mol/L); control wells were incubated with medium alone or containing 5% FCS. Migration was quantified by measuring cell-free areas at day 0 and 24 hours using Image-J software (NIH, Bethesda, Md., USA).

C3aR = target: T1, C3aR (Mus musculus, UniProt O09047); assay: Calcium mobilization in B16 cells; assay type: cell-based, murine; conditions: cultured B16 cells
T1 construct: endogenous in cells; host or cells: B16-F0 murine melanoma cells (ATCC CRL6322)
T1 sequence (O09047 1-477): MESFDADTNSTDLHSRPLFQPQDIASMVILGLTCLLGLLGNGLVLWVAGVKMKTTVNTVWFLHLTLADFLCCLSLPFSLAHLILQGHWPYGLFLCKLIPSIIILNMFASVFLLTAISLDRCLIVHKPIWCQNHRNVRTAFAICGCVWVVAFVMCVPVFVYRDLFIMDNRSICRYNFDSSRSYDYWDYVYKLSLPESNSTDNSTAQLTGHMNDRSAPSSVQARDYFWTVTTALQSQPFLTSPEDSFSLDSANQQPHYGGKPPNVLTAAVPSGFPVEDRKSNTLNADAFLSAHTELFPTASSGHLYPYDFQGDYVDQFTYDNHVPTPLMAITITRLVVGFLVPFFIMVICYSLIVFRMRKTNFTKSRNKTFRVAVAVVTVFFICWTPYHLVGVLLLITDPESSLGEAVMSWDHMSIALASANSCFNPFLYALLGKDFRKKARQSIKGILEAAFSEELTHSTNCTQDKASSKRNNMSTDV

B16 melanoma = B16 melanoma growth and survival in mice; assay type: in vivo; conditions: for survival (time until tumors reach maximal size): C3aRA vs vehicle
Experimental: (§1) WT or C3aR^−/− mice were injected subcutaneously (s.c.) with B16-F0 melanoma (2.5×10^5 cells/mouse) or MC38 colon carcinoma (1×10^6 cells/mouse); female BALB/c mice were injected into the mammary fat pad with 4T1 mammary carcinoma (5×10^5 cells/mouse). Tumor growth was monitored daily from day 5 after tumor cell injection. For some experiments, C57BL/63 mice received daily injections of either C3aR antagonist (SB290157; VDM Biochemicals, Bedford Heights, Ohio; diluted in saline, 1 mg/kg/day i.p.,), C5aR antagonist (PMX53; produced in-house; 1 mg/kg/day) or vehicle only (0.9% saline or 5% glucose solution) control, commencing once tumors became palpable (approx. day 7 after tumor cell injection). For most experiments, mice were euthanized at day 14 (or once the largest tumor reached an area of approx. 200 mm^2), blood was collected by cardiac puncture, tumors, spleen, draining lymph nodes (inguinal, axillary and brachial) and femurs excised for FACS or immunostaining; tumors were weighed. For ‘survival’ studies, the time taken for each tumor to reach a pre-determined size (150 mm^2) was recorded, then mice euthanized.

leukocyte populations = assay: Flow cytometric analysis of leukocyte populations in B16 tumor-bearing mice; assay type: in vivo; conditions: vs vehicle
Experimental: as §1
Single cell suspensions of blood, tumor, spleen and lymph node and bone marrow cell were prepared for surface staining with antibodies to mouse CD45, F4/80, CD11b, Ly6G, Gr-1, CD3, CD4, CD8a (all from Biolegend, San Diego, Calif.). Staining for Tregs was carried out using a FoxP3 Fix/Perm kit (BioLegend), according to manufacturer's instructions. For Th1, Th2, Th17 staining, cells were stimulated with phorbol 12-myristate 13-acetate (PMA; 50 ng/ml; Sigma) and ionomycin (1 μM; Sigma) in the presence of Brefeldin A (5 μg/ml; BioLegend) for 4 h at 37° C. After surface staining, cells were fixed and permeabilized for staining of intracellular cytokines; IL-4, IL-17A or IFN-γ (all from BioLegend). Flow cytometry was performed using an Accuri C6 flow cytometer (BD Biosciences) and data analysis with FlowJo software (Tree Star, Inc., Ashland, Oreg.). Details are provided in Supplemental Experimental Procedures.

4T1 mammary carcinoma = 4T1 mammary carcinoma growth in BALB/c mice; assay type: in vivo; conditions: female BALB/c mice, 1 mg/kg/day i.p. from day 0, vs saline
Experimental: as §1, with “For some experiments, C57BL/63 mice received daily injections of either C3aR antagonist (SB290157; VDM Biochemicals, Bedford Heights, Ohio; diluted in saline, 1 mg/kg/day i.p.,), C5aR antagonist (PMX53; produced in-house; 1 mg/kg/day) or vehicle only (0.9% saline or 5% glucose solution) control, commencing once tumors became palpable (approx. day 7 after tumor cell injection).” left out

CD11b+Ly6G+ neutrophils = assay: Neutrophil mobilization by G-CSF in wild-type and C3aR-/- mice; assay type: in vivo; conditions: 120 μg/kg i.v., 2 hours
Experimental: Wild-type, or C3aR^−/− mice were injected i.v. with G-CSF (Lenograstim; 120 μg/kg), or vehicle (saline). Blood was collected after 2 hours, and CD11b+Ly6G+ neutrophils analyzed using flow cytometry for CD11b+ and Ly6G+.

[4] = established B16 melanoma, C57BL/6J mice, 1 mg/kg/day i.p. from day 7, vs vehicle

WWGKKYRASKLGLAR (listed as Homo sapiens) [selective C3aR agonist]
tumor cell proliferation (B16 melanoma cells [1]): no significant effect
ERK and AKT signaling pathways [2]: activated
cell migration (B16 melanoma cells [3]): significantly increased
calcium mobilization response (C3aR): failed to initiate a calcium mobilization response

PMX53
reduction in tumor growth observed in C3aR-/- mice (B16 melanoma; C3aR-/- mice, B16 melanoma, 1 mg/kg/day s.c. once tumors palpable): not enhanced
melanoma growth (B16 melanoma; WT mice, B16 melanoma, 1 mg/kg/day s.c. once tumors palpable, vs vehicle): inhibited melanoma growth

N=C(N)NCCC[C@H](NC(=O)COCC(c1ccccc1)c1ccccc1)C(=O)O [SB290157, N^2-[(2,2-diphenylethoxy)acetyl]-1-arginine]
Tregs (leukocyte populations; blood): reduction
neutrophils (leukocyte populations; blood): significant increase
MDSC (leukocyte populations; bone marrow): significantly lower
monocytes (leukocyte populations; bone marrow): significantly lower
neutrophils (leukocyte populations; bone marrow): significantly lower
Th2 cells (leukocyte populations; draining lymph nodes): significantly increased
macrophages (leukocyte populations; draining lymph nodes): not significantly different
monocytes (leukocyte populations; draining lymph nodes): not significantly different
neutrophils (leukocyte populations; draining lymph nodes): not significantly different
percentage of CD4+ T lymphocytes (leukocyte populations; draining lymph nodes): significantly increased
percentage of CD8+ T lymphocytes (leukocyte populations; draining lymph nodes): significantly increased
CD4+ lymphocytes (leukocyte populations; spleen): significantly higher
MDSC (leukocyte populations; spleen): significantly lower
Th2 cells (leukocyte populations; spleen): significant increases
Treg cells (leukocyte populations; spleen): significant increases
proportion of macrophages (leukocyte populations; spleen): not significantly altered
proportion of monocytes (leukocyte populations; spleen): not significantly altered
proportion of neutrophils (leukocyte populations; spleen): not significantly altered
total lymphocytes (leukocyte populations; spleen): significantly higher
percentage of CD4+ T lymphocytes (leukocyte populations; tumor tissue, 1 mg/kg/day): higher
percentage of Th1 subset (leukocyte populations; tumor tissue, 1 mg/kg/day): significantly increased
percentage of Th2 subset (leukocyte populations; tumor tissue, 1 mg/kg/day): significantly increased
percentage of Th17 subset (leukocyte populations; tumor tissue, 1 mg/kg/day): significantly increased
percentage of total T lymphocytes (leukocyte populations; tumor tissue, 1 mg/kg/day): higher
percentage of tumor-infiltrating neutrophils (leukocyte populations; tumor tissue, 1 mg/kg/day): increased
proportion of MDSC (leukocyte populations; tumor tissue, 1 mg/kg/day): not significantly altered
tumor-associated macrophages (leukocyte populations; tumor tissue, 1 mg/kg/day): reduced
tumor growth (4T1 mammary carcinoma): significant inhibition of tumor growth
survival (time until tumors reach maximal size) (B16 melanoma; B16 melanoma): significantly improved
survival (time until tumors reach maximal size) (B16 melanoma; B16 melanoma, listed as C3aRA): increased survival
excised tumor weights (B16 melanoma; B16 melanoma, day 14, 1 mg/kg/day i.p. from day 7, vs vehicle): significantly smaller
tumor area (B16 melanoma; [4]): significantly smaller than in the vehicle-treated control group
tumor progression (B16 melanoma; [4]): dramatically retarded

recombinant human C3a: recombinant human C3a used to stimulate B16 cells
ERK and AKT signaling pathways [2]: activated
calcium mobilization response (C3aR): failed to initiate a calcium mobilization response

B1: G-CSF: granulocyte-colony stimulating factor (Lenograstim), stem cell-mobilizing agent (protein, UniProt P09919 31-207, looked up)
Granulocyte …: TPLGPASSLPQSFLLKCLEQVRKIQGDGAALQEKLVSECATYKLCHPEELVLLGHSLGIPWAPLSSCPSQALQLAGCLSQLHSGLFLYQGLLQALEGISPELGPTLDTLQLDVADFATTIWQQMEELGMAPALQPTQGAMPAFASAFQRRAGGVLVASHLQSFLEVSYRVLRHLAQP
blood CD11b+Ly6G+ (anti-tumor) neutrophils in C3aR-/- mice compared with saline (CD11b+Ly6G+ neutrophils): significantly enhanced; also recorded: significant (P=0.0079) increase
mobilization of blood neutrophils, C3aR-/- compared with wild-type mice (CD11b+Ly6G+ neutrophils): significantly (P=0.0056) greater mobilization of neutrophils
